Measured values published in patent US4863918A, “Enamine quaternary compounds, methods of making and their use as muscle relaxants” (BOC, Inc., priority 1988, dated 1989).

Tests used:
[1] = Cardiovascular change (HR, BP) at equi-efficacious dose in dogs; format: in vivo; conditions: dog
[2] = Cardiovascular change (HR, BP) at equi-efficacious dose in rabbits; format: in vivo; conditions: rabbit
paw twitch [3] = assay: Twitch depression (muscle relaxant effect) in anesthetized rabbits; rabbit paw twitch; format: in vivo, New Zealand White rabbits; conditions: for ED90: Oryctolagus cuniculus, read-out: Equi-efficacious dose
Protocol: [The procedure below names another organism; the source lists this organism under the same test.] (§1) Mongrel dogs were injected with 50 mg/kg of pentobarbital until the onset of anesthesia as determined by the eyeblink reflex test. The injectable solutions prepared above were administered intravenously to the anesthesized mongrel dogs and measurements were made of the muscle relaxant effect including maximum twitch depression, onset, duration and recovery time in a clinically known manner. Each of the subjects were compared with a control animal receiving an injection of distilled water.
The same compound of the present invention as in
A number of compounds in accordance with the present invention were tested for their neuromuscular blockade Properties. Specifically, the acid addition salts of the compounds were dissolved in sterile water for injection.

paw twitch [4] = assay: Twitch depression (muscle relaxant effect) in anesthetized dogs; dog paw twitch; format: in vivo, mongrel dogs; conditions: Table V; for ED90: Canis lupus familiaris, iv, read-out: Equi-efficacious dose; for ED90 / Equi-efficacious dose: dog paw twitch; for Duration (DURAT.) / Onset / Recovery (RECOV.): dog, at equi-efficacious dose
Protocol: as §1

neuromuscular blockade = conditions: background, in words; cited from earlier work
[5] = Table V, at equi-efficacious dose
[6] = Table IV, at equi-efficacious dose
[7] = Table IV, rabbit, at equi-efficacious dose
[8] = Table IV, rabbit, at equi-efficacious dose, depolarizer, based on twitch recovery not to-f
[9] = depolarizer, based on twitch recovery not to-f
[10] = Table VI, rabbit paw twitch, at indicated dose
[11] = Table VII, rabbit paw twitch, at indicated dose

CC(=O)O[C@H]1C[C@@H]2CC[C@@H]3[C@H](CC[C@@]4(C)[C@H]3C[C@H]([N+]3(C)CCCCC3)[C@@H]4OC(C)=O)[C@@]2(C)C[C@@H]1N1CCCCC1 [vecuronium]
BP % [1, 5]: 2.3%
HR % [1, 5]: 3.5%
BP % [2, 6]: 1.1%
HR % [2, 6]: -1.9%
ED90 (paw twitch [3]; Table IV, rabbit paw twitch): 0.019 mg/kg
Duration (DURAT.) (paw twitch [3]; [7]): 16.8 min
Onset (paw twitch [3]; [7]): 97.3 s
Recovery (RECOV.) (paw twitch [3]; [7]): 9.6 min
ED90 (paw twitch [4]): 0.019 mg/kg
Duration (DURAT.) (paw twitch [4]): 26.6 min
Onset (paw twitch [4]): 171.0 s
Recovery (RECOV.) (paw twitch [4]): 21.8 min

descuronium
BP % ([2]; in vivo): -7.6%
HR % ([2]; in vivo): -4.1%
Equi-efficacious dose (paw twitch [3]; Table IV, rabbit paw twitch): 0.053 mg/kg
Duration (DURAT.) (paw twitch [3]; [7]): 21.5 min
Onset (paw twitch [3]; [7]): 129.4 s
Recovery (RECOV.) (paw twitch [3]; [7]): 13.1 min

CC(=O)O[C@H]1C[C@@H]2CC[C@@H]3[C@H](CC[C@@]4(C)[C@H]3C[C@H]([N+]3(C)CCCCC3)[C@@H]4OC(C)=O)[C@@]2(C)C[C@@H]1[N+]1(C)CCCCC1 [pancuronium]
BP % [1, 5]: -1.8%
HR % [1, 5]: 0.2%
BP % [2, 6]: 2.7%
HR % [2, 6]: 0.0%
ED90 (paw twitch [3]; Table IV, rabbit paw twitch): 0.022 mg/kg
Duration (DURAT.) (paw twitch [3]; [7]): 32.5 min
Onset (paw twitch [3]; [7]): 147.5 s
Recovery (RECOV.) (paw twitch [3]; [7]): 17.4 min
ED90 (paw twitch [4]): 0.013 mg/kg
Duration (DURAT.) (paw twitch [4]): 45.7 min
Onset (paw twitch [4]): 169.0 s
Recovery (RECOV.) (paw twitch [4]): 35.6 min
duration of paralysis and recovery (neuromuscular blockade): maintain paralysis for an undesirably long time and the recovery period is slow

COc1cc(CC2c3c(cc(OC)c(OC)c3OC)CC[N+]2(C)CCCOC(=O)CCC(=O)OCCC[N+]2(C)CCc3cc(OC)c(OC)c(OC)c3C2Cc2cc(OC)c(OC)c(OC)c2)cc(OC)c1OC (stereo not shown) [BW938]
BP % ([2]; in vivo): -5.2%
HR % ([2]; in vivo): -3.8%
Equi-efficacious dose (paw twitch [3]; Table IV, rabbit paw twitch): 0.010 mg/kg
Duration (DURAT.) (paw twitch [3]; [7]): 167.0 min
Onset (paw twitch [3]; [7]): 282.4 s
Recovery (RECOV.) (paw twitch [3]; [7]): 101.7 min

C[N+](C)(C)CCCCCCCCCC[N+](C)(C)C [decamethonium]
BP % [2, 6]: -2.6%
HR % [2, 6]: -2.8%
ED90 (paw twitch [3]; Table IV, rabbit paw twitch): 0.165 mg/kg
Onset (paw twitch [3]; [7]): 104.0 s
Duration (DURAT.) (paw twitch [3]; [8]): 41.7 min
Recovery (RECOV.) (paw twitch [3]; [8]): 41.7 min

C[N+](C)(C)CCOC(=O)CCC(=O)OCC[N+](C)(C)C [succinylcholine]
BP % [1, 5]: 25.7%
HR % [1, 5]: 34.9%
BP % [2, 6]: -4.1%
HR % [2, 6]: 0.2%
ED90 (paw twitch [3]; Table IV, rabbit paw twitch): 0.447 mg/kg
Onset (paw twitch [3]; [7]): 39.4 s
Duration (DURAT.) (paw twitch [3]; [8]): 18.6 min
Recovery (RECOV.) (paw twitch [3]; [8]): 18.6 min
ED90 (paw twitch [4]): 0.043 mg/kg
Onset (paw twitch [4]): 98.9 s
Duration (DURAT.) (paw twitch [4]; [9]): 8.8 min
Recovery (RECOV.) (paw twitch [4]; [9]): 5.4 min
reversibility by anticholinesterase drugs (neuromuscular blockade): not easily reversed by anticholinesterase drugs

C[C@]12CC[C@@H]([N+]3(C)CCCC3)C[C@@H]1CC[C@@H]1[C@@H]2CC[C@@]2(C)[C@H]1CCC[N+]2(C)C.[Br-].[Br-] [RGH-4201]
BP % ([1]; in vivo): 1.4%
HR % ([1]; in vivo): 11.3%
BP % ([2]; in vivo): 2.6%
HR % ([2]; in vivo): 0.3%
Equi-efficacious dose (paw twitch [3]; Table IV, rabbit paw twitch): 0.070 mg/kg
Duration (DURAT.) (paw twitch [3]; [7]): 7.7 min
Onset (paw twitch [3]; [7]): 35.4 s
Recovery (RECOV.) (paw twitch [3]; [7]): 6.1 min
Equi-efficacious dose (paw twitch [4]): 0.077 mg/kg
Duration (DURAT.) (paw twitch [4]): 28.3 min
Onset (paw twitch [4]): 123.6 s
Recovery (RECOV.) (paw twitch [4]): 22.0 min

COc1cc2c(cc1OC)C(Cc1cc(OC)c(OC)c(OC)c1)[N+](C)(CCCOC(=O)CCC=CCCC(=O)OCCC[N+]1(C)CCc3cc(OC)c(OC)cc3C1Cc1cc(OC)c(OC)c(OC)c1)CC2 (stereo not shown) [BW1090]
BP % [1, 5]: -3.1%
HR % [1, 5]: 0.7%
BP % [2, 6]: 1.2%
HR % [2, 6]: -0.4%
ED90 (paw twitch [3]; Table IV, rabbit paw twitch): 0.504 mg/kg
Duration (DURAT.) (paw twitch [3]; [7]): 8.7 min
Onset (paw twitch [3]; [7]): 48.5 s
Recovery (RECOV.) (paw twitch [3]; [7]): 7.3 min
ED90 (paw twitch [4]): 0.39 mg/kg
Duration (DURAT.) (paw twitch [4]): 75.0 min
Onset (paw twitch [4]): 195.5 s
Recovery (RECOV.) (paw twitch [4]): 70.3 min

COc1ccc(CC2c3cc(OC)c(OC)cc3CC[N+]2(C)CCC(=O)OCCCCCOC(=O)CC[N+]2(C)CCc3cc(OC)c(OC)cc3C2Cc2ccc(OC)c(OC)c2)cc1OC (stereo not shown) [atracurium]
BP % ([1]; in vivo): 0.3%
HR % ([1]; in vivo): 3.3%
BP % ([2]; in vivo): -3.4%
HR % ([2]; in vivo): -1.0%
ED90 (paw twitch [3]; Table IV, rabbit paw twitch): 0.046 mg/kg
Duration (DURAT.) (paw twitch [3]; [7]): 14.3 min
Onset (paw twitch [3]; [7]): 126.9 s
Recovery (RECOV.) (paw twitch [3]; [7]): 12.2 min
ED90 (paw twitch [4]): 0.086 mg/kg
Duration (DURAT.) (paw twitch [4]): 27.9 min
Onset (paw twitch [4]): 159.4 s
Recovery (RECOV.) (paw twitch [4]): 20.4 min

CC1(C)CC(N2CCC3(CC2)OCC2(CO3)COC3(CCN(C4=CC(=[N+]5CCCCCC5)CC(C)(C)C4)CC3)OC2)=CC(=[N+]2CCCCCC2)C1 [compound 24]
Onset (paw twitch [3]; [10]): 64 s

CC1CCC[N+](=C2C=C(N3CCCC4(C3)OCC3(CO4)COC4(CCCN(C5=CC(=[N+]6CCCC(C)C6)CC(C)(C)C5)C4)OC3)CC(C)(C)C2)C1 (stereo not shown) [No. 20]
Onset (paw twitch [3]; [11]): 44.9 s

CC1CCC[N+](=C2C=C(N3CCC4(CC3)OCC3(CO4)COC4(CCN(C5=CC(=[N+]6CCCC(C)C6)CC(C)(C)C5)CC4)OC3)CC(C)(C)C2)C1 (stereo not shown) [compound 33]
Onset (paw twitch [3]; [10]): 53.1 s

C[N+](CCc1ccccc1)=C1C=C(N2CCC3(CC2)OCC2(CO3)COC3(CCN(C4=CC(=[N+](C)CCc5ccccc5)CC(C)(C)C4)CC3)OC2)CC(C)(C)C1 [compound 36]
Onset (paw twitch [3]; [10]): 81.9 s

CC1(C)CC(N2CCC3(CC2)OCC2(CO3)COC3(CCN(C4=CC(=[N+]5CCCCCC5)CC(C)(C)C4)CC3)OC2)=CC(=[N+]2CCCCCC2)C1 [compound 29]
Onset (paw twitch [3]; [10]): 56.1 s

CC[N+](CC)=C1C=C(N2CCC3(CC2)OCC2(CO3)COC3(CCN(C4=CC(=[N+](CC)CC)CC(C)C4)CC3)OC2)CC(C)C1 (stereo not shown) [compound 54]
Onset (paw twitch [3]; [10]): 51 s

CC1(C)CC(N2CCC3(CC2)OCC2(CO3)COC3(CCN(C4=CC(=[N+](Cc5ccco5)Cc5ccco5)CC(C)(C)C4)CC3)OC2)=CC(=[N+](Cc2ccco2)Cc2ccco2)C1 [compound 11]
Onset (paw twitch [3]; [10]): 77.3 s

CC1(C)CC(N2CCC3(CC2)OCC2(CO3)COC3(CCN(C4=CC(=[N+]5CCc6ccccc6C5)CC(C)(C)C4)CC3)OC2)=CC(=[N+]2CCc3ccccc3C2)C1 [compound 48]
Onset (paw twitch [3]; Table VI, rabbit paw twitch, at indicated dose, in s): 113.5

CC1(C)CC(N2CCC3(CC2)OCC2(CO3)COC3(CCN(C4=CC(=[N+]5CCCCCC5)CC(C)(C)C4)CC3)OC2)=CC(=[N+]2CCCCCC2)C1 [compound 44]
Onset (paw twitch [3]; [10]): 67.2 s

CC1(C)CC(N2CCC3(CC2)OCC2(CO3)COC3(CCN(C4=CC(=[N+]5CC6(C)CC5CC(C)(C)C6)CC(C)(C)C4)CC3)OC2)=CC(=[N+]2CC3(C)CC2CC(C)(C)C3)C1 [compound 39]
Onset (paw twitch [3]; [10]): 75.9 s

CC1(C)CC(N2CCC3(CC2)OCC2(CO3)COC3(CCN(C4=CC(=[N+]5CCCC6(CC5)OCCO6)CC(C)(C)C4)CC3)OC2)=CC(=[N+]2CCCC3(CC2)OCCO3)C1 [compound 14]
Onset (paw twitch [3]; [10]): 52.8 s

CC1CC(N2CCC3(CC2)OCC2(CO3)COC3(CCN(C4=CC(=[N+]5CCCC6(CC5)OCCO6)CC(C)C4)CC3)OC2)=CC(=[N+]2CCCC3(CC2)OCCO3)C1 (stereo not shown) [compound 42]
Onset (paw twitch [3]; [10]): 75.6 s

CC1(C)CC(N2CCCC3(CC2)OCC2(CO3)COC3(CCCN(C4=CC(=[N+]5CCCC6(C5)OCCO6)CC(C)(C)C4)CC3)OC2)=CC(=[N+]2CCCC3(C2)OCCO3)C1 (stereo not shown) [No. 14]
Onset (paw twitch [3]; Table VIII, rabbit paw twitch, at indicated dose): 44.5 s

COc1cc2c3cc1Oc1cc(ccc1O)C[C@@H]1c4c(cc(OC)c(O)c4Oc4ccc(cc4)C[C@@H]3N(C)CC2)CC[N+]1(C)C [d-tubocurarine]
BP % [1, 5]: -25.8%
HR % [1, 5]: 8.7%
BP % [2, 6]: 4.8%
HR % [2, 6]: -0.3%
Equi-efficacious dose (paw twitch [3]; Table IV, rabbit paw twitch): 0.229 mg/kg
Duration (DURAT.) (paw twitch [3]; [7]): 37.3 min
Onset (paw twitch [3]; [7]): 85.0 s
Recovery (RECOV.) (paw twitch [3]; [7]): 34.8 min
Equi-efficacious dose (paw twitch [4]): 0.254 mg/kg
Duration (DURAT.) (paw twitch [4]): 60.0 min
Onset (paw twitch [4]): 150.8 s
Recovery (RECOV.) (paw twitch [4]): 55.3 min
duration of paralysis and recovery (neuromuscular blockade): maintain paralysis for an undesirably long time and the recovery period is slow

CC[N+](CCC1OCCO1)=C1C=C(N2CCCC3(C2)OCC2(CO3)COC3(CCCN(C4=CC(=[N+](CC)CCC5OCCO5)CC(C)(C)C4)C3)OC2)CC(C)(C)C1 (stereo not shown) [No. 21]
Onset (paw twitch [3]; [11]): 33.3 s

COc1ccc2cc1Oc1cc3c(cc1OC)CC[N+](C)(C)[C@H]3Cc1ccc(cc1)Oc1c(OC)c(OC)cc3c1[C@@H](C2)[N+](C)(C)CC3 [metocurine]
BP % [2, 6]: -1.6%
HR % [2, 6]: 0.2%
ED90 (paw twitch [3]; Table IV, rabbit paw twitch): 0.025 mg/kg
Duration (DURAT.) (paw twitch [3]; [7]): 37.8 min
Onset (paw twitch [3]; [7]): 72.4 s
Recovery (RECOV.) (paw twitch [3]; [7]): 34.9 min

CC[N+](CC1CC1)=C1C=C(N2CCCC3(C2)OCC2(CO3)COC3(CCCN(C4=CC(=[N+](CC)CC5CC5)CC(C)(C)C4)C3)OC2)CC(C)(C)C1 (stereo not shown) [No. 17]
Onset (paw twitch [3]; [11]): 39.3 s

CC[N+](CCC1OCCO1)=C1C=C(N2CCC3(CC2)OCC2(CO3)COC3(CCN(C4=CC(=[N+](CC)CCC5OCCO5)CC(C)(C)C4)CC3)OC2)CC(C)(C)C1 [compound 53]
Onset (paw twitch [3]; [10]): 58.6 s
